Assay results: ChEMBL document CHEMBL2331378, “Synthesis and discovery of novel piperidone-grafted mono- and bis-spirooxindole-hexahydropyrrolizines as potent cholinesterase inhibitors” (Bioorg Med Chem, 2013)

Assays:
Cholinesterase = Cholinesterase (Equus caballus, UniProt P81908); assay: Inhibition of equine serum BuChE using S-butyrylthiocholine chloride substrate by Ellman's method based spectrophotometry
[1] = Selectivity index, ratio of IC50 for equine serum BuChE to IC50 for AChE (unknown origin)
[2] = Selectivity index, ratio of IC50 for AChE (unknown origin) to IC50 for equine serum BuChE
Acetylcholinesterase = Acetylcholinesterase (Homo sapiens, UniProt P22303); assay: Inhibition of AChE (unknown origin) using acetylthiocholine iodide substrate by Ellman's method based spectrophotometry
Chain of Acetylcholinesterase (P22303 whole entry): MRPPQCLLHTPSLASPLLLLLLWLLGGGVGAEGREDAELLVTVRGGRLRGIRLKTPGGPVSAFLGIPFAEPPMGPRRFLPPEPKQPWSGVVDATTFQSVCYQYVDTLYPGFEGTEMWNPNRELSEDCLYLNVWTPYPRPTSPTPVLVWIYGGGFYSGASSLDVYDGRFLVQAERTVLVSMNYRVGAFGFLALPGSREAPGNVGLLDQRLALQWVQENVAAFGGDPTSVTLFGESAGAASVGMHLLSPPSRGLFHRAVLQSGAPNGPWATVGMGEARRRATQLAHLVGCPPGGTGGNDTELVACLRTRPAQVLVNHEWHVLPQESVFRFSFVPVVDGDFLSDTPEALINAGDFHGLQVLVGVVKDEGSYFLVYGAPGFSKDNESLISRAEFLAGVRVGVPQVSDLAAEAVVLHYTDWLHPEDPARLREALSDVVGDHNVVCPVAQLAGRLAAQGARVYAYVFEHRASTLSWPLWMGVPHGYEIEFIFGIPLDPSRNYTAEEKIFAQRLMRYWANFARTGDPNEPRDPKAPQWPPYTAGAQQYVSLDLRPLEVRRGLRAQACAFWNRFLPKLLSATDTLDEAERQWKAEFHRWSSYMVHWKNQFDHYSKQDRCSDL

Chain of Cholinesterase (P81908 whole entry): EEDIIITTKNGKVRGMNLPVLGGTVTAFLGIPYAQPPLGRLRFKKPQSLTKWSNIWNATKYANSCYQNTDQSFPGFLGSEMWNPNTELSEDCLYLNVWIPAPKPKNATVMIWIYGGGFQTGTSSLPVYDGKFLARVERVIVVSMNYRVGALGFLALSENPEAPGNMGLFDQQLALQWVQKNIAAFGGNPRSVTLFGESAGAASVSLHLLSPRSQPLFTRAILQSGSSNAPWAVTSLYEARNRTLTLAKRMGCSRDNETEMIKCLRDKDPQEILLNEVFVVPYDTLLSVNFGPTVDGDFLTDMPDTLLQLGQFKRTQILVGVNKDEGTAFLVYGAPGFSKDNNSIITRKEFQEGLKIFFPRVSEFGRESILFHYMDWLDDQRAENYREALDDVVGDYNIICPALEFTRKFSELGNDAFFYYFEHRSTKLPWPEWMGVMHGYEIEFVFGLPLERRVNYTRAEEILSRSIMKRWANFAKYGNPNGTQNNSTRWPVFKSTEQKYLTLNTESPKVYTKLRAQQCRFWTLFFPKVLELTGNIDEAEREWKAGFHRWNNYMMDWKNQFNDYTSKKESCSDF

| Compound | IC50 (Cholinesterase) [µM] | Ratio IC50 [1] | Ratio IC50 [2] | IC50 (Acetylcholinesterase) [µM] |
| --- | --- | --- | --- | --- |
| O=C1/C(=C/c2ccc(F)cc2)CN(C(=O)C[C@H]2C[C@H]3CCCN3[C@]23C(=O)Nc2ccccc23)C/C1=C\c1ccc(F)cc1 (racemic) | 3.99 | 0.2 | 4.97 | 19.8 |
| O=C(C[C@H]1C[C@H]2CCCN2[C@]12C(=O)Nc1ccccc12)N1C/C(=C\c2ccccc2)C(=O)[C@]2(C[C@H]3CCCN3[C@@]23C(=O)Nc2ccccc23)C1 (racemic) | 18.2 | 0.93 | 1.08 | 19.7 |
| O=C1/C(=C/c2ccc(Cl)cc2Cl)CN(C(=O)C[C@H]2C[C@H]3CCCN3[C@]23C(=O)Nc2ccccc23)C/C1=C\c1ccc(Cl)cc1Cl (racemic) | 21.2 | 5.15 | 0.19 | 4.11 |
| C=CC(=O)N1C/C(=C\c2ccccc2)C(=O)/C(=C/c2ccccc2)C1 | 22.1 | 1.25 | 0.8 | 17.7 |
| C=CC(=O)N1C/C(=C\c2ccccc2C)C(=O)/C(=C/c2ccccc2C)C1 | 30 | 1.73 | 0.58 | 17.4 |
| C=CC(=O)N1C/C(=C\c2cccc3ccccc23)C(=O)/C(=C/c2cccc3ccccc23)C1 | 23.1 | 1.67 | 0.6 | 13.8 |
| O=C1/C(=C/c2ccccc2Cl)CN(C(=O)C[C@H]2C[C@H]3CCCN3[C@]23C(=O)Nc2ccccc23)C/C1=C\c1ccccc1Cl (racemic) | 19.7 | 1.66 | 0.6 | 11.9 |
| O=C1/C(=C/c2cccc([N+](=O)[O-])c2)CN(C(=O)C[C@H]2C[C@H]3CCCN3[C@]23C(=O)Nc2ccccc23)C/C1=C\c1cccc([N+](=O)[O-])c1 (racemic) | 18.1 | 3.03 | 0.33 | 5.99 |
| O=C1/C(=C/c2ccc(Cl)cc2)CN(C(=O)C[C@H]2C[C@H]3CCCN3[C@]23C(=O)Nc2ccccc23)C/C1=C\c1ccc(Cl)cc1 (racemic) | 32.3 | 9.6 | 0.1 | 3.36 |
| O=C1/C(=C/c2cccc3ccccc23)CN(C(=O)C[C@H]2C[C@H]3CCCN3[C@]23C(=O)Nc2ccccc23)C/C1=C\c1cccc2ccccc12 (racemic) | 11.8 | 1.74 | 0.57 | 6.76 |
| Cc1ccc(/C=C2\CN(C(=O)C[C@H]3C[C@H]4CCCN4[C@]34C(=O)Nc3ccccc34)C/C(=C\c3ccc(C)cc3)C2=O)cc1 (racemic) | 25.2 | 1.26 | 0.8 | 20.1 |
| Cc1ccccc1/C=C1\CN(C(=O)C[C@H]2C[C@H]3CCCN3[C@]23C(=O)Nc2ccccc23)C[C@@]2(C[C@H]3CCCN3[C@@]23C(=O)Nc2ccccc23)C1=O (racemic) | 13 | 0.47 | 2.12 | 27.5 |
| COc1ccccc1/C=C1\CN(C(=O)C[C@H]2C[C@H]3CCCN3[C@]23C(=O)Nc2ccccc23)C[C@@]2(C[C@H]3CCCN3[C@@]23C(=O)Nc2ccccc23)C1=O (racemic) | 19.2 | 1.68 | 0.59 | 11.4 |
| C=CC(=O)N1C/C(=C\c2ccc(Cl)cc2Cl)C(=O)/C(=C/c2ccc(Cl)cc2Cl)C1 | 29.4 | 1.86 | 0.54 | 15.8 |
| C=CC(=O)N1C/C(=C\c2ccccc2OC)C(=O)/C(=C/c2ccccc2OC)C1 | 28.9 | 3.32 | 0.3 | 8.72 |
| O=C(C[C@H]1C[C@H]2CCCN2[C@]12C(=O)Nc1ccccc12)N1C/C(=C\c2ccc(Cl)cc2Cl)C(=O)[C@]2(C[C@H]3CCCN3[C@@]23C(=O)Nc2ccccc23)C1 (racemic) | 9.45 | 1.36 | 0.74 | 6.96 |
| O=C(C[C@H]1C[C@H]2CCCN2[C@]12C(=O)Nc1ccccc12)N1C/C(=C\c2ccccc2F)C(=O)[C@]2(C[C@H]3CCCN3[C@@]23C(=O)Nc2ccccc23)C1 (racemic) | 9.09 | 0.37 | 2.7 | 24.6 |

| Compound | IC50 (Cholinesterase) [µM] | Ratio IC50 [1] | Ratio IC50 [2] | IC50 (Acetylcholinesterase) [µM] |
| --- | --- | --- | --- | --- |
| O=C(C[C@H]1C[C@H]2CCCN2[C@]12C(=O)Nc1ccccc12)N1C/C(=C\c2cccc3ccccc23)C(=O)[C@]2(C[C@H]3CCCN3[C@@]23C(=O)Nc2ccccc23)C1 (racemic) | 6.42 | 0.31 | 3.21 | 20.6 |
| O=C1/C(=C/c2ccccc2)CN(C(=O)C[C@H]2C[C@H]3CCCN3[C@]23C(=O)Nc2ccccc23)C/C1=C\c1ccccc1 (racemic) | 16.3 | 0.93 | 1.07 | 17.5 |
| C=CC(=O)N1C/C(=C\c2ccc(C)cc2)C(=O)/C(=C/c2ccc(C)cc2)C1 | 35.1 | 1.94 | 0.51 | 18.1 |
| C=CC(=O)N1C/C(=C\c2ccc(F)cc2)C(=O)/C(=C/c2ccc(F)cc2)C1 | 30.6 | 2.02 | 0.49 | 15.1 |
| O=C(C[C@H]1C[C@H]2CCCN2[C@]12C(=O)Nc1ccccc12)N1C/C(=C\c2ccc(Cl)cc2)C(=O)[C@]2(C[C@H]3CCCN3[C@@]23C(=O)Nc2ccccc23)C1 (racemic) | 10.9 | 1.38 | 0.73 | 7.92 |
| O=C1/C(=C/c2ccccc2F)CN(C(=O)C[C@H]2C[C@H]3CCCN3[C@]23C(=O)Nc2ccccc23)C/C1=C\c1ccccc1F (racemic) | 3.5 | 0.1 | 9.82 | 34.4 |
| C=CC(=O)N1C/C(=C\c2ccc(Cl)cc2)C(=O)/C(=C/c2ccc(Cl)cc2)C1 | 38.2 | 1.73 | 0.58 | 22 |
| Cc1ccc(/C=C2\CN(C(=O)C[C@H]3C[C@H]4CCCN4[C@]34C(=O)Nc3ccccc34)C[C@@]3(C[C@H]4CCCN4[C@@]34C(=O)Nc3ccccc34)C2=O)cc1 (racemic) | 17.9 | 0.91 | 1.1 | 19.6 |
| C=CC(=O)N1C/C(=C\c2ccccc2Cl)C(=O)/C(=C/c2ccccc2Cl)C1 | 36.6 | 2.24 | 0.45 | 16.3 |
| C=CC(=O)N1C/C(=C\c2ccccc2F)C(=O)/C(=C/c2ccccc2F)C1 | 54 | 4.58 | 0.22 | 11.8 |
| O=C(C[C@H]1C[C@H]2CCCN2[C@]12C(=O)Nc1ccccc12)N1C/C(=C\c2ccccc2Cl)C(=O)[C@]2(C[C@H]3CCCN3[C@@]23C(=O)Nc2ccccc23)C1 (racemic) | 11.7 | 0.86 | 1.16 | 13.6 |
| C=CC(=O)N1C/C(=C\c2cccc([N+](=O)[O-])c2)C(=O)/C(=C/c2cccc([N+](=O)[O-])c2)C1 | 51.2 | 5.24 | 0.19 | 9.76 |
| Cc1ccccc1/C=C1\CN(C(=O)C[C@H]2C[C@H]3CCCN3[C@]23C(=O)Nc2ccccc23)C/C(=C\c2ccccc2C)C1=O (racemic) | 17.8 | 1.43 | 0.7 | 12.5 |
| O=C(C[C@H]1C[C@H]2CCCN2[C@]12C(=O)Nc1ccccc12)N1C/C(=C\c2cccc([N+](=O)[O-])c2)C(=O)[C@]2(C[C@H]3CCCN3[C@@]23C(=O)Nc2ccccc23)C1 (racemic) | 24.3 | 0.91 | 1.1 | 26.6 |
| O=C(C[C@H]1C[C@H]2CCCN2[C@]12C(=O)Nc1ccccc12)N1C/C(=C\c2ccc(F)cc2)C(=O)[C@]2(C[C@H]3CCCN3[C@@]23C(=O)Nc2ccccc23)C1 (racemic) | 8.29 | 0.35 | 2.86 | 23.7 |
| COc1ccccc1/C=C1\CN(C(=O)C[C@H]2C[C@H]3CCCN3[C@]23C(=O)Nc2ccccc23)C/C(=C\c2ccccc2OC)C1=O (racemic) | 9.41 | 0.59 | 1.69 | 15.9 |
